Molecular target: Integrase (Human immunodeficiency virus 1, UniProt Q76353)
Experiment: Inhibition of HIV-1 integrase

Compound: COc1cc(C=CC(=O)CC(=O)C=Cc2ccc(O)c(OC)c2)ccc1O
- IC50: 40 µM
